The results in this text go back to publication PMC10552397 (Cell Communication and Signaling : CCS, 2023).

Read-outs that look alike come from different tables or passages of the source.

In one test the test system is HeLa wt cells. The experiment in a line: Immunoblot of LC3-II and SQSTM1 (autophagic flux). Type of test: cell-based. The conditions noted are these: 100 nM, 6 h. On the procedure:
For SDS PAGE and western blotting, cells were harvested by scraping, pelletized at 150 rcf and 4 °C for 5 min, washed with DPBS and quickly frozen in liquid nitrogen. Cells were lysed in lysis buffer (20 mM Tris–HCl, 150 mM NaCl, 500 µM EDTA, 1% [v/v] Triton X-100, 1 mM Na3VO4, 10 mM NaF, 2.5 mM Na4P2O7, 1X protease inhibitor cocktail [Roche, Basel, Switzerland, #4693132001]) for 30 min on ice and the lysates were cleared by centrifugation at 18,000 rcf and 4 °C for 15 min. Protein concentration was determined by Bradford assay and sample buffer was added (62.5 mM Tris, 8.6% [v/v] glycerol, 2% [w/v] SDS, 33.3 µg/mL bromophenol blue, 1% [v/v] β-mercaptoethanol). […] For CETSA analysis of TPP-TR samples, the protein concentration was determined by Pierce 660 nm Protein Assay and the protein concentration of the 36.5 °C treated sample of each treatment and replicate was used for the other nine samples of the respective sample set to display temperature-dependent total protein aggregation and precipitation. […] After separation by SDS-PAGE, proteins were transferred to PVDF membranes (Merck, Darmstadt, Germany, #IPFL00010), blocked with 5% milk powder in TBST and analyzed using the indicated primary antibodies followed by appropriate IRDye 800- or IRDye 680-conjugated secondary antibodies (LI-COR Biosciences, Lincoln, NE, USA). […]

A further test concerns JUN. The experiment in a line: TPP-TR/RTSA, JUN. The conditions noted are these: 100 nM vs DMSO, 6 h, HeLa wt. Type of test: binding, Homo sapiens. On the procedure: TPP was performed essentially as described, but with major modifications to the TMT labeling sets and statistical data analysis for TPP-TR.
Adherent cells were washed in the dish once with DPBS and harvested by Trypsin–EDTA (0.25%, Thermo Fisher Scientific, Waltham, MA, USA, #25,200,056) treatment. […]
After temperature treatment, samples were supplemented with lysis buffer (final concentrations: 0.36 U/µL benzonase, 1.5 mM MgCl2, 1 mM Na3VO4, 10 mM NaF, 2.5 mM Na4P2O7, 0.8% w/v NP-40) for 1 h on ice. […] The total protein concentration of the resulting cell extracts containing the fraction of soluble, non-denatured proteins was determined (Pierce 660 nm Protein Assay, BSA as standard). […] The two (37 °C or 50 °C) x ten (concentrations) x three (replicates) = 60 TPP-CCR samples and two (treatment and control) x ten (temperatures) x three (replicates) = 60 TPP-TR samples were analyzed by LC–MS/MS. GRASP55 was additionally quantified from the TPP-TR samples by immunoblotting as described in the respective section.
For TPP-CCR, SP3 was performed as described with slight modifications to the original protocol using on average 5 µg total protein per sample and resulting in theoretically 5 µg peptides in 22 µL 50 mM triethylammonium bicarbonate per sample. […] This volume was calculated such that the lowest two temperature samples (36.5 °C and 41.2 °C) contained 10 µg total protein on average. […]

A further test has as its system HeLa GRASP55 KO cells. The experiment in a line: cells. The conditions noted are these: Homo sapiens, read-out: IC50 value GRASP55 KO.

Experimental for HeLa GRASP55 KO cells: Cell viability was measured using the MTT (3-(4,5-dimethylthiazol-2-yl)-2,5-diphenyltetrazolium bromide) assay. HeLa cells were seeded in 96-well plates with a density of 5*10^3 cells/well. […] After the incubation time, 20 µL of a 5 mg/mL MTT stock solution (ROTH, Karlsruhe, Germany, #4022.3) were added to the cells and they were incubated at 37 °C and 5% CO2 in a humidified atmosphere for 30 min. Upon removal of the MTT-containing medium 100 µL DMSO per well were added for extraction of the formazan. Absorbance was measured at 570 nm and 650 nm (reference) with a microplate reader (SynergyMx, BioTek, Winooski, VT, USA). After subtraction of the reference value, the mean of the absorbance of the solvent control was set as 100% and the relative viability was calculated for each sample.
GRASP55 KO cells were generated using the CRISPR/Cas9 system developed by the Zhang lab [59]. Double-stranded DNA oligos (5´-[sequence]-3´, 3´-[sequence]-5´), encoding guide RNAs (gRNAs) against the target gene were cloned into the Bbsl restriction site of pSpCas9(BB)-2A-GFP (PX458) vector gifted from Feng Zhang (Addgene plasmid #48,138; http://n2t.net/addgene:48138; RRID:Addgene_48138). […]
All IC50 values were calculated using GraphPad Prism 7.01.

For `CCCCCC1=C/C(=C/c2[nH]c(-c3ccc[nH]3)cc2OC)N=C1C` [Prodigiosin, prodigiosin], the LC3-II level result in the test on HeLa wt cells is on record as “accumulated”. The “starvation-induced degradation of SQSTM1” value with HeLa wt cells (EBSS) is on record as “blocked”. Further, the Mean_dTm in the test with JUN is on record as -0.6723. In addition, the results for the IC50 in the test with HeLa GRASP55 KO cells (24 h) and with HeLa GRASP55 KO cells (72 h) were 1420 nM and 83.3 nM, respectively.
